# Experiments:
# [1] = In vivo detection of ICG sponge in canine surgical site, 780 nm laser; design: species or system dog; conditions: FIG. 7
# Procedure: Method: A stray female dog (Doberman […]) underwent an ovariohysterectomy procedure. After making an incision in the dog's abdomen, a standard 4×4 surgical gauze was placed inside the surgical site and allowed to become saturated with blood. A 780 nm laser was focused on a portion of the gauze and the area photographed and observed for excitation. This experiment was repeated using a sponge soaked in 1 mM ICG dye solution for 1 hr and a sponge soaked in 1 mM ICG dye solution for 24 hrs. Prior to in vivo use, the sponges first underwent sterilization: Steam sterilization at 350° F. for 20 min and gas sterilization in ethylene oxide for 12-24 hr.
# [2] = NIR dye leaching from sponges: fluorescence of canine blood samples; conditions: for fluorescence of test canine blood sample (ICG leaching): blood and DMSO in a 1:3 ratio
smiles,measurement,setting,value
"CC1(C)C(/C=C/C=C/C=C/C=C2\N(CCCCS(=O)(=O)O)c3ccc4ccccc4c3C2(C)C)=[N+](CCCCS(=O)(=O)[O-])c2ccc3ccccc3c21 [ICG, indocyanine green]",fluorescence of sponge soaked for 24 hrs compared to sponge soaked for 1 hr,[1]; 1 mM ICG dye solution,increase in florescence
same,fluorescence of treated sponge compared to the untreated sponge,[1]; sponge treated with 1 mM ICG solution,significant increase in the fluorescence
same,fluorescence of test canine blood sample (ICG leaching),[2]; 1 hr after sponge placement,no fluorescence
same,fluorescence of test canine blood sample (ICG leaching),[2]; 4 hours after sponge placement,no fluorescence
same,fluorescence wavelength in control canine blood sample,"[2]; canine blood spiked with 0.1 mM solution of ICG in DMSO, FIG. 8",815 nm

# Source: patent US20170303817A1, “SURGICAL ARTICLES AND METHODS FOR DETECTION” (GEORGIA STATE UNIVERSITY RESEARCH FOUNDATION, INC., priority 2014, published 2017)
